Assays:
[1] = biological target: T1, bovine serum amine oxidase (BSAO) (Bos taurus, UniProt Q29437); assay: DCHBS/AAP peroxide-coupled kinetic assay with spermidine as substrate, Morrison tight-binding fit; type: biochemical; set-up: BSAO purified from bovine blood
T1 sequence (Q29437 17-762): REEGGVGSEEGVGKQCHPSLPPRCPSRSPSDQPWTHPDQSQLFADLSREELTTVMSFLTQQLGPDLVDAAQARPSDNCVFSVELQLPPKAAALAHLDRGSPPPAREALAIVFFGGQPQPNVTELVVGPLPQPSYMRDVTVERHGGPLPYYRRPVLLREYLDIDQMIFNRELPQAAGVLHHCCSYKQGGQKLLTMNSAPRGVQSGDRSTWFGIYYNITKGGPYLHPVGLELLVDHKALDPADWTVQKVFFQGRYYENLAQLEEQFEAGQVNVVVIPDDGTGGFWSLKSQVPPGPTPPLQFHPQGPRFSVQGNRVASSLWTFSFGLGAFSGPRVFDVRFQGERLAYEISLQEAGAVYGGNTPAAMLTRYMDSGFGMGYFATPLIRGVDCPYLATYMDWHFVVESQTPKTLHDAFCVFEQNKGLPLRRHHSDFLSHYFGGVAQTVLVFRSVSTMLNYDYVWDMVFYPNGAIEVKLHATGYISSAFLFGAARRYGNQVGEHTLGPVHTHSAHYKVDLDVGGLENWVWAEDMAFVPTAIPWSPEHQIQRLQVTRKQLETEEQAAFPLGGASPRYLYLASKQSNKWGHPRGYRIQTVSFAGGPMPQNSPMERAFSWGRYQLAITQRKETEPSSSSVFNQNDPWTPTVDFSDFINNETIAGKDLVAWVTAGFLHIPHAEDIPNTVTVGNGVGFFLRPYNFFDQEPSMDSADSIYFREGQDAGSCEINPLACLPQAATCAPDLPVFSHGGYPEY

[2] = biological target: T1, bovine serum amine oxidase (BSAO); assay: spectrophotometric benzaldehyde formation at […] nm; type: biochemical; set-up: BSAO purified from bovine blood; also decomplemented FBS

| Ki [1] | Compound | spectrophotometric benzaldehyde formation at 250 nm [2] |
| --- | --- | --- |
| 308 nM | N=C(N)NCCCCCCCN [GC7] | – |
| – | NCc1ccccc1 [benzylamine] | BSAO and decomplemented FBS activities were determined spectrophotometrically as the amount of benzaldehyde formed per min (μmol/min) from benzylamine |
